In patent US12370178B2, “Tinostamustine for use in the treatment of t-cell prolymphocytic leukaemia” (Purdue Pharma L.P., priority 2017, dated 2025):

Columns and labels:
[1] = system: HH cells; experiment: HH cell viability, Annexin-V/7-AAD flow cytometry; assay type: cell-based, human; details: 48 hours treatment
Protocol: The alkylating agent bendamustine (MundiPharma) was dissolved in methanol.
Human primary T-PLL cells are unsuitable for cultivation under standard laboratory cell culture conditions, in part, due to their high levels of genomic heterogeneity and variable phenotypes. HH cells are derived from a highly chemotherapy resistant cutaneous lymphoma, and are suitable for cultivation under laboratory conditions. […] HH cells were therefore selected for the in vitro validation of EDO-S101.
To evaluate the cytotoxicity of EDO-S101 in comparison to bendamustine and vorinostat (SAHA), HH cells were treated with either EDO-S101, bendamustine, vorinostat or an equimolar bendamustine/vorinostat combination over a period 48 hours. Cells were treated with either 0.1 μM, 1 μM, 2.5 μM, 5 μM or 10 μM solutions of the indicated compounds (FIG. 1a).
Annexin-V specifically targets and identifies apoptotic cells. 7-AAD is a marker of late stage apoptotic, or necrotic cells. The number of Annexin-V and 7-AAD negative cells was counted for each sample.

[2] = system: T-PLL cells; experiment: Western blot analysis of patient T-PLL samples; assay type: cell-based, human; details: 1 μM, 36 hours
Protocol: FISH analysis used standard protocols (Vysis, Abbott).
T-PLL cells were cultured in suspension, and treated with either bendamustine (1 μM), vorinostat (1 μM), EDO-S101 (1 μM) or an equimolar combination of vorinostat/bendamustine (1 μM) for 36 hours at the indicated concentrations. After this time, the cells were harvested and lysed, the cell lysate sonicated, centrifuged to remove any cellular debris, and the supernatant collected. The protein concentration of each cell lysate solution (the supernatant) was determined and the western blot performed using standard methods.
The antibodies used were acHistone 3 (Sigma Aldrich), phospho-ATM Serine1981 (Sigma Aldrich), ATM (Sigma Aldrich), phospho-KAP-1 Serine824 (Sigma Aldrich), KAP-1 (Sigma Aldrich), phosphor-p53 Serine15 (Sigma Aldrich), acetyl-p53 (Sigma Aldrich), p53 (Sigma Aldrich), PARP (Sigma Aldrich), cleaved-PARP (Sigma Aldrich), and β-Actin (Sigma Aldrich).
After this time, the cells were harvested, lysed and protein expression levels determined by western blot analysis.
Staining for β-Actin was used as a loading control for each western blot ran (rows a to k, and rows l to o respectively).

[3] = Healthy CD3+ T-cell cytotoxicity; assay type: cell-based, human; details: human, healthy CD3+ T-cells, suspension culture; read-out: LC50 (the source's name)
From the text: (§1) Healthy CD3+ T-cells were isolated from healthy human donors.

[4] = system: healthy CD3+ T-cells; experiment: Healthy CD3+ T-cell cytotoxicity; assay type: cell-based, human; details: selectivity T-PLL over healthy T-cells
From the text: as §1

[5] = system: T-PLL/NKtert co-cultured cells; experiment: T-PLL/NKtert co-culture apoptosis, Annexin-V/7-AAD flow cytometry; assay type: cell-based, human; details: 48 hours; for overcoming NKtert associated protection of co-cultured T-PLL cells: 0.1, 1 or 10 μM
Protocol: For co-culture experiments human bone marrow stromal cells (BMSC) NKtert cells (RIKEN BRC, Japan) were seeded at concentrations of 1.5×10^4 cells/well (96 well plate) and incubated at 37° C. in 5% CO2. After 24 hours, NKtert cells at approximately 60-80% confluency were treated with 0.02 mg/mL Mitomycin C for 3 hours in […], and then washed twice with PBS (Life Technologies). After another 24 hours, 4×10^5 T-PLL cells were added per well (with and without feeder cell support) and treated for 48 hours with the indicated compounds.
Referring to FIG. 3b, the control sample Ø on the left hand graph is normalised to 1 for normal T-PLL cells.

[6] = system: NKtert cells; experiment: NKtert bone marrow stromal cell viability, MTT assay; details: 0.1, 1, 5 or 10 μM, 48 hours
Protocol: Cells were cultured in a HERAcell incubator (Thermo Scientific Heraeus) at 37° C. and 5% CO2 with 90% humidity. CD4+ mature T-cell leukemia HH cells were originally isolated from a patient with Sézary Syndrome (Starkebaum et al., 1991). NKtert (human bone marrow stromal cells [BMSC]) were purchased from RIKEN Cell Bank in 2011. Only cells derived from the original cell stock as purchased, and which had been propagated for 2 to 3 passages before long-term storage in liquid nitrogen, were used. Cell cultures were terminated after the 10th passage (4 to 6 weeks of being in culture). Cells were authenticated following thawing by evaluation of characteristic growth behaviour and by flow cytometry. Cells were routinely tested for the presence of mycoplasma, using standard PCR protocols (primers: for1: 5′-acaccatgggagytggtaat-3′, (SEQ ID No; 1) rev1: 5′-cttcwtcgattycagacccaaggcat-3 (SEQ ID NO: 2)′, for2: 5′-gtgsggmtggatcacctcct-3 (SEQ ID NO: 3)′, rev2: 5′-gcatccaccawawacyctt-3′ (SEQ ID NO: 4)).
Consequently, the effect on cell viability of NKtert bone marrow stromal cells (BMSC) feeders cells alone was also investigated. Cells were treated with either bendamustine, vorinostat, an equimolar combination of bendamustine and vorinostat, or EDO-S101, at either 0.1, 1, 5 or 10 μM concentrations, incubated for 48 hours, and cell viability assessed using MTT assays (FIG. 3d).

[7] = system: CD2-MTCP1 cells; experiment: CD2-MTCP1p13 leukaemia transfer model in mice; assay type: in vivo; details: for increase in leukemic blood leukocyte (WBC) count: Day 14 vs Day 9 post-transplantation, compared to control and fludarabine; for average post-mortem spleen weight: day 22 post-transplantation, compared to fludarabine or control
From the text: DBA2×C57B6JF1 mice were used as recipients in all experiments. Transplantable leukaemia/lymphoma cells derived from CD2-MTCP1p13 tg mice (Gritti et al, Blood 1998, 92, 268-73; blood, spleen, and bone marrow) were intraperitoneally injected into background-matched mice (to facilitate the generation of uniform cohorts). 1×10^7 cells from CD2-MTCP1p13 mice were intraperitoneally injected into syngeneic recipients (n=26). Starting on day 10 post-transplantation, mice with a homogeneous distribution of leukemic blood leukocytes (WBC) were selected and randomly assigned into four treatment groups. Each group was then treated with either vehicle control (DMSO), fludarabine (34 mg/kg days 10, 15, 17, 21), bendamustine (day 10 at 60 mg/kg, days 15, 17, 21 at 20 mg/kg), and EDO-S101 (day 10 at 50 mg/kg, days 15, 17, 21 at 20 mg/kg) on the indicated days at the indicated doses.
Mice were injected with leukaemia cells derived from CD2-MTCP1 mice, as previously described (FIG. 4a).
CD2-MTCP1 cells are an aggressive, transplantable subline and are suitable for in vivo analysis as a T-PLL like model. […] Each group was intravenously administered either fludarabine (34 mg/kg), bendamustine (Day 10, 60 mg/kg; Day 15-21, 20 mg/kg) or EDO-S101 (Day 10, 50 mg/kg; Day 15-21, 20 mg/kg) at the indicated doses on Day 10, Day 15, Day 17, […] Day 21 post-transplantation. Samples of blood were taken at regular intervals (Day 9 and Day 14 post-transplantation), and the mice sacrificed at 22 days post-transplantation (FIG. 4a).
The blood samples taken were analysed for leukemic blood leukocyte levels (WBC), and the average cell count in each group determined.
Following sacrifice of the mice on day 22 post-transplantation, the post-mortem spleen weights of each mouse were determined (FIG. 4c). The reduced average spleen weight in mouse cohorts treated with bendamustine or EDO-S101, compared to cohorts treated with fludarabine or a control, corroborate the findings previously discussed in FIG. 4b. Tumour manifestation was therefore shown to be less advanced in cohorts treated with EDO-S101 or single-agent bendamustine, compared to fludarabine treated or control cohorts.

[8] = system: leukaemia/lymphoma cells derived from ΔJAK1 mice; experiment: ΔJAK1 mature T-cell lymphoma transfer model in mice; assay type: in vivo; details: for mean survival: 18 mg/kg i.v. on Day 7, 10, 13, 17, 22
Protocol: Transplantable leukaemia/lymphoma cells derived from ΔJAK1 mice (Heinrich et al, Mol. Ther. 2013, 21, 1160-8; nodal/spleen mature T-cell lymphoma based on insertional mutagenesis activating JAK1) were intravenously injected into background-matched mice (to facilitate the generation of uniform cohorts). 2.5×10^6 cells were transplanted intravenously into Rag1-deficient mice. […] Each treatment group was then treated with 18 mg/kg of either bendamustine, fludarabine, EDO-S101, or with vehicle control on days 7, 10, 13, 17, 22 (DMSO).
Mice were injected with leukaemia/lymphoma cells derived from ΔJAK1 mice, as previously described (FIG. 5). ΔJAK1 is a model for mature T-cell lymphoma. Mice were divided into four groups at random post-transplantation. Each group was intravenously administered either fludarabine (18 mg/kg), bendamustine (18 mg/kg) or EDO-S101 (18 mg/kg) at the indicated doses on Day 7, Day 10, Day 13, Day 17 and Day 22. The percentage survival of each cohort was plotted as a function of time (FIG. 5).

[9] = system: primary human T-PLL cells
Protocol: (§2) RPMI-1640 medium (Sigma-Aldrich) supplemented with 1% L-Glutamine (200 mM; Sigma-Aldrich), 10% fetal bovine serum (FBS) (Sigma-Aldrich) and Penicillin/Streptomycin (100 U/0.1M; PAA) was used for in-vitro experimentation on suspension cultures of primary T-PLL cells, healthy CD3+ T cells, HH cells, and in co-culture experiments with NKtert cells. Cell suspensions were maintained at a density of 1.0×10^6 cells/mL (primary T-PLL cells) and 2.5×10^5 cells/mL (HH cells) for all cell culture experiments.
(§3) EDO-S101 (EDO MundiPharma), and vorinostat (SAHA; SML0061-5 mg, Sigma-Aldrich) were dissolved in DMSO. […] Cells were treated with each compound (or compounds) at the indicated concentrations and times. Dosing was based on published ranges and IC50/LD50 titrations. Cell apoptosis was determined using dual staining for Annexin-V (AnxV) and 7AAD via flow cytometry.
(§4) To further evaluate apoptosis in cells treated with EDO-S101, primary human T-PLL cells were treated with either vorinostat, bendamustine, EDO-S101, or an equimolar combination of vorinostat and bendamustine, at 0.01 μM, 0.1 μM, 1 μM, 5 μM or 10 μM concentrations, and incubated for 48 hours. Following treatment, cell death was evaluated by staining cells with the apoptosis markers Annexin-V and 7-AAD, and the number of apoptotic cells quantified by flow cytometry. Each experiment was repeated for the indicated number of times, and the average number of apoptosis negative cells plotted and normalised relative to an untreated control sample. A dose response curve (FIG. 3a) for each treatment was subsequently plotted, and the LD50 (median lethal dose) of each treatment determined.
(§5) To evaluate the protections conferred by NKtert cells to primary human T-PLL cells, NKtert cells and T-PLL cells were co-cultured for treatment with EDO-S101. Primary T-PLL cells with (FIG. 3b) and without (FIG. 3c) co-cultures of NKtert cells were treated with increasing concentrations (0.1, 1, or 10 μM) of vorinostat, bendamustine, an equimolar combination of vorinostat and bendamustine, or EDO-S101, and incubated for 48 hours.
(§6) Following treatment, cell death was evaluated by staining cells with the apoptosis markers Annexin-V and 7-AAD, and the number of apoptotic cells quantified by flow cytometry. Each experiment was repeated for the indicated number of times, and the average number of apoptosis negative cells plotted as a ratio relative to an untreated control sample (FIG. 3b, FIG. 3c).

[10] = system: primary human T-PLL cells; experiment: cells; details: 48 h, read-out: LC50
Protocol: as §2, §3, §4, §5, §6

[11] = system: T-PLL; details: cited from earlier work
[12] = vs bendamustine, vorinostat or combination

Row | Molecule | LD50 (median lethal dose) [1] | overcoming NKtert associated protection of co-cultured T-PLL cells [5] | reduction in viability of NKtert cells [6] | increase in leukemic blood leukocyte (WBC) count [7] | average post-mortem spleen weight [7] | mean survival [8] | CC50 [10] | further results
1 | Cn1c(CCCCCCC(=O)NO)nc2cc(N(CCCl)CCCl)ccc21 [EDO-S101, 7-(5-(bis(2-chloroethyl)amino)-1-methyl-1H-benzo[d]imidazol-2-yl)-N-hydroxyheptanamide] | 1.5 µM | overcame the protection conferred by the NKtert cells | largely comparable | significantly delayed | reduced | 26 days | 1 µM | accumulation of acetyl-p53 [2, 12]: greatest accumulation; accumulation of p-p53 [2, 12]: greatest accumulation; cleaved PARP (cPARP) [2, 12]: greatest increase; levels of pATM [2, 12]: largest increase; levels of pKAP1 [2, 12]: largest increase; levels of γH2AX [2, 12]: largest increase; acetylation of histone3 (acHistone3) ([2]; vs vorinostat or vorinostat + bendamustine): largest increase; CC50 [3]: 4.4 µM; fold more potent against T-PLL cells compared to healthy CD3+ T-cells [4]: approximately 4 fold; approximate cell death count ([5]; co-cultured T-PLL/NKtert cells, 10 μM): greater than 95%; increase in average survival time compared to bendamustine or fludarabine ([8]; 18 mg/kg i.v.): ≤ 8 days; fold increase in potency against T-PLL cells compared to combination of vorinostat and bendamustine ([9]; LC50 1.0 μM vs 4.4 μM): ~4 fold; approximate cell death count ([9]; T-PLL cells monoculture, 10 μM, 48 hours): greater than 95%
2 | Cn1c(CCCC(=O)O)nc2cc(N(CCCl)CCCl)ccc21 [bendamustine, reference compound] | 8.0 µM | not as effective as EDO-S101 | did not have a pronounced concentration dependent effect | significantly delayed | reduced | 18 days | 7.3 µM | –
3 | Nc1nc(F)nc2c1ncn2[C@@H]1O[C@H](CO)[C@@H](O)[C@@H]1O [fludarabine, reference compound] | – | – | – | – | – | 19 days | – | –
4 | O=C(CCCCCCC(=O)Nc1ccccc1)NO [vorinostat] | 2.7 µM | not as effective as EDO-S101 | – | – | – | – | 20.4 µM | –
5 | Alemtuzumab: monoclonal anti-CD52 antibody | – | – | – | – | – | – | – | overall response rates ([11]; T-PLL patients): 51-95%; median survival ([11]; patients achieving a complete response): 15-19 months
